These compounds were tested against T1, Polyporus pinsitus laccase (Trametes villosa, UniProt Q99044) (assay: Bleaching of methyl orange using rPpL and NOH-type enhancing agents (initial bleaching rate)). Details: pH 4; rPpL solution diluted 1:200; 0.2 mM mediator; 30° C.; large negative numbers = best performance.
T1 construct: made in house
T1 sequence (Q99044 22-520): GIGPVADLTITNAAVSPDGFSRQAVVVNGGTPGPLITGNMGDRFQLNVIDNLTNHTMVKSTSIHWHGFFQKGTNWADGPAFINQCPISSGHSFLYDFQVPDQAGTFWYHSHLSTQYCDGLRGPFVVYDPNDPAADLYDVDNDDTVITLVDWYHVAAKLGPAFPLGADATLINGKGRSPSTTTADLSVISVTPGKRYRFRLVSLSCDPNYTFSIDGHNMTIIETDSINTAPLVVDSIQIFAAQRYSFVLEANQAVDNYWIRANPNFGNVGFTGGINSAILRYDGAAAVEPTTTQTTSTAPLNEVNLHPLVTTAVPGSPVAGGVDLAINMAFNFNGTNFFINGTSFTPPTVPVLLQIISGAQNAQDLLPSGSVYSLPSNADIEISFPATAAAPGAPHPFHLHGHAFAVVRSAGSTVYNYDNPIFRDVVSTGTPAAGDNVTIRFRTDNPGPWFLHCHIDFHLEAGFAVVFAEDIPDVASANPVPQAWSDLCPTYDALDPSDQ
Assay type: biochemical
Description: (§1) Britton-Robinson buffer is composed of:
(§2) Methyl orange (Merck, Germany)
(§3) Reactions were started by addition of enzyme. Absorbance at 464 nm was followed for 3 minutes (readings every 5 seconds) on a Cobas Fara at 30° C. Initial bleaching rates were determined from the first linear part of the progress curves.
(§4) The N—OH compounds listed above were tested as laccase mediators in bleaching of methyl orange with three recombinant laccases (rPpL, rMtL and rCcL) at various pH values. Large negative numbers represent the best performance.

Structure (SMILES)	Initial changes per minute in A464 nm of methyl orange using rPpL
O=c1[nH]c(=O)[nH]c(=O)[nH]1 [Cyanuric acid]	−0.037 per minute
[O-][n+]1ccc2ccccc2c1 [Iso-quinoline-N-oxide]	−0.074 per minute
O=C(c1ccccc1)N(O)c1ccccc1 [N-benzoyl-N-phenylhydroxylamine, N-Benzoyl-N-phenylhydroxylamine]	−0.732 per minute
O=C1c2ccccc2C(=O)N1O [N-hydroxyphthalimide]	−0.050 per minute

Same assay, conditions: pH 5; rPpL solution diluted 1:200; 0.2 mM mediator; 30° C.; large negative numbers = best performance

Structure (SMILES)	Initial changes per minute in A464 nm of methyl orange using rPpL
O=c1[nH]c(=O)[nH]c(=O)[nH]1 [Cyanuric acid]	−0.022 per minute
[O-][n+]1ccc2ccccc2c1 [Iso-quinoline-N-oxide]	−0.037 per minute
O=C(c1ccccc1)N(O)c1ccccc1 [N-benzoyl-N-phenylhydroxylamine, N-Benzoyl-N-phenylhydroxylamine]	−1.402 per minute
O=C1c2ccccc2C(=O)N1O [N-hydroxyphthalimide]	−0.035 per minute

Same assay, conditions: pH 6; rPpL solution diluted 1:200; 0.2 mM mediator; 30° C.; large negative numbers = best performance

Structure (SMILES)	Initial changes per minute in A464 nm of methyl orange using rPpL
O=c1[nH]c(=O)[nH]c(=O)[nH]1 [Cyanuric acid]	−0.011 per minute
[O-][n+]1ccc2ccccc2c1 [Iso-quinoline-N-oxide]	−0.014 per minute
O=C(c1ccccc1)N(O)c1ccccc1 [N-benzoyl-N-phenylhydroxylamine, N-Benzoyl-N-phenylhydroxylamine]	−0.420 per minute
O=C1c2ccccc2C(=O)N1O [N-hydroxyphthalimide]	−0.011 per minute

Same assay, conditions: pH 7; rPpL solution diluted 1:200; 0.2 mM mediator; 30° C.; large negative numbers = best performance

Structure (SMILES)	Initial changes per minute in A464 nm of methyl orange using rPpL
O=c1[nH]c(=O)[nH]c(=O)[nH]1 [Cyanuric acid]	−0.002 per minute
[O-][n+]1ccc2ccccc2c1 [Iso-quinoline-N-oxide]	−0.002 per minute
O=C(c1ccccc1)N(O)c1ccccc1 [N-benzoyl-N-phenylhydroxylamine, N-Benzoyl-N-phenylhydroxylamine]	−0.012 per minute
O=C1c2ccccc2C(=O)N1O [N-hydroxyphthalimide]	−0.001 per minute

Each compound was assayed on Recombinant Myceliophthora thermophila laccase (rMtL) (assay: Bleaching of methyl orange using rMtL and NOH-type enhancing agents (initial bleaching rate)). Details: pH 4; rMtL solution diluted 1:300; 0.2 mM mediator; 30° C.; large negative numbers = best performance.
Assay type: biochemical
Description: as §1, §2, §3, §4

Structure (SMILES)	Initial changes per minute in A464 nm of methyl orange using rMtL
O=c1[nH]c(=O)[nH]c(=O)[nH]1 [Cyanuric acid]	−0.013 per minute
[O-][n+]1ccc2ccccc2c1 [Iso-quinoline-N-oxide]	−0.017 per minute
O=C(c1ccccc1)N(O)c1ccccc1 [N-benzoyl-N-phenylhydroxylamine, N-Benzoyl-N-phenylhydroxylamine]	−0.269 per minute
O=C1c2ccccc2C(=O)N1O [N-hydroxyphthalimide]	−0.019 per minute

Same assay, conditions: pH 5; rMtL solution diluted 1:300; 0.2 mM mediator; 30° C.; large negative numbers = best performance

Structure (SMILES)	Initial changes per minute in A464 nm of methyl orange using rMtL
O=c1[nH]c(=O)[nH]c(=O)[nH]1 [Cyanuric acid]	0.010 per minute
[O-][n+]1ccc2ccccc2c1 [Iso-quinoline-N-oxide]	−0.010 per minute
O=C(c1ccccc1)N(O)c1ccccc1 [N-benzoyl-N-phenylhydroxylamine, N-Benzoyl-N-phenylhydroxylamine]	−0.296 per minute
O=C1c2ccccc2C(=O)N1O [N-hydroxyphthalimide]	−0.016 per minute

Same assay, conditions: pH 6; rMtL solution diluted 1:300; 0.2 mM mediator; 30° C.; large negative numbers = best performance

Structure (SMILES)	Initial changes per minute in A464 nm of methyl orange using rMtL
O=c1[nH]c(=O)[nH]c(=O)[nH]1 [Cyanuric acid]	−0.002 per minute
[O-][n+]1ccc2ccccc2c1 [Iso-quinoline-N-oxide]	−0.004 per minute
O=C(c1ccccc1)N(O)c1ccccc1 [N-benzoyl-N-phenylhydroxylamine, N-Benzoyl-N-phenylhydroxylamine]	−0.082 per minute
O=C1c2ccccc2C(=O)N1O [N-hydroxyphthalimide]	−0.005 per minute

Same assay, conditions: pH 7; rMtL solution diluted 1:300; 0.2 mM mediator; 30° C.; large negative numbers = best performance

Structure (SMILES)	Initial changes per minute in A464 nm of methyl orange using rMtL
O=c1[nH]c(=O)[nH]c(=O)[nH]1 [Cyanuric acid]	0.000 per minute
[O-][n+]1ccc2ccccc2c1 [Iso-quinoline-N-oxide]	0.000 per minute
O=C(c1ccccc1)N(O)c1ccccc1 [N-benzoyl-N-phenylhydroxylamine, N-Benzoyl-N-phenylhydroxylamine]	−0.012 per minute
O=C1c2ccccc2C(=O)N1O [N-hydroxyphthalimide]	0.000 per minute

Each compound was assayed on Recombinant Coprinus cinereus laccase (rCcL) (assay: Bleaching of methyl orange using rCcL and NOH-type enhancing agents (initial bleaching rate)). Details: pH 4; rCcL solution diluted 1:200; 0.2 mM mediator; 30° C.; large negative numbers = best performance.
Assay type: biochemical
Description: as §1, §2, §3, §4

Structure (SMILES)	Initial changes per minute in A464 nm of methyl orange using rCcL
O=c1[nH]c(=O)[nH]c(=O)[nH]1 [Cyanuric acid]	−0.005 per minute
[O-][n+]1ccc2ccccc2c1 [Iso-quinoline-N-oxide]	−0.002 per minute
O=C(c1ccccc1)N(O)c1ccccc1 [N-benzoyl-N-phenylhydroxylamine, N-Benzoyl-N-phenylhydroxylamine]	−0.163 per minute
O=C1c2ccccc2C(=O)N1O [N-hydroxyphthalimide]	−0.006 per minute

Same assay, conditions: pH 5; rCcL solution diluted 1:200; 0.2 mM mediator; 30° C.; large negative numbers = best performance

Structure (SMILES)	Initial changes per minute in A464 nm of methyl orange using rCcL
O=c1[nH]c(=O)[nH]c(=O)[nH]1 [Cyanuric acid]	−0.008 per minute
[O-][n+]1ccc2ccccc2c1 [Iso-quinoline-N-oxide]	−0.005 per minute
O=C(c1ccccc1)N(O)c1ccccc1 [N-benzoyl-N-phenylhydroxylamine, N-Benzoyl-N-phenylhydroxylamine]	−0.247 per minute
O=C1c2ccccc2C(=O)N1O [N-hydroxyphthalimide]	−0.007 per minute

Same assay, conditions: pH 6; rCcL solution diluted 1:200; 0.2 mM mediator; 30° C.; large negative numbers = best performance

Structure (SMILES)	Initial changes per minute in A464 nm of methyl orange using rCcL
O=c1[nH]c(=O)[nH]c(=O)[nH]1 [Cyanuric acid]	−0.012 per minute
[O-][n+]1ccc2ccccc2c1 [Iso-quinoline-N-oxide]	−0.008 per minute
O=C(c1ccccc1)N(O)c1ccccc1 [N-benzoyl-N-phenylhydroxylamine, N-Benzoyl-N-phenylhydroxylamine]	−0.529 per minute
O=C1c2ccccc2C(=O)N1O [N-hydroxyphthalimide]	−0.014 per minute

Same assay, conditions: pH 7; rCcL solution diluted 1:200; 0.2 mM mediator; 30° C.; large negative numbers = best performance

Structure (SMILES)	Initial changes per minute in A464 nm of methyl orange using rCcL
O=c1[nH]c(=O)[nH]c(=O)[nH]1 [Cyanuric acid]	−0.012 per minute
[O-][n+]1ccc2ccccc2c1 [Iso-quinoline-N-oxide]	−0.010 per minute
O=C(c1ccccc1)N(O)c1ccccc1 [N-benzoyl-N-phenylhydroxylamine, N-Benzoyl-N-phenylhydroxylamine]	−0.592 per minute
O=C1c2ccccc2C(=O)N1O [N-hydroxyphthalimide]	−0.011 per minute

Same assay, conditions: pH 8; rCcL solution diluted 1:200; 0.2 mM mediator; 30° C.; large negative numbers = best performance

Structure (SMILES)	Initial changes per minute in A464 nm of methyl orange using rCcL
O=c1[nH]c(=O)[nH]c(=O)[nH]1 [Cyanuric acid]	−0.005 per minute
[O-][n+]1ccc2ccccc2c1 [Iso-quinoline-N-oxide]	−0.004 per minute
O=C(c1ccccc1)N(O)c1ccccc1 [N-benzoyl-N-phenylhydroxylamine, N-Benzoyl-N-phenylhydroxylamine]	−0.124 per minute
O=C1c2ccccc2C(=O)N1O [N-hydroxyphthalimide]	−0.004 per minute

— patent US6399561B1, “Methods and compositions for bleaching a dye in solution” (Novozymes A/S, priority 1998, dated 2002)
